Data from patent US20260166039A1 (SCHRÖDINGER, INC., priority 2022, published 2026).

Target: T1, Wee1 kinase domain (Homo sapiens, UniProt P30291)
T1 construct: Wee1 kinase domain was purchased from Carna (catalog #05-177); purchased Carna 05-177
Test: Wee1 Kinase Biochemical Assay (ADP-Glo)
Details: 1 nM Wee1 enzyme, 15 uM ATP, 4 hours at 25° C
Outline: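 Compounds tested against 1 nM Wee1 kinase domain in Tris buffer containing 20 mM MgCl2, BSA and 2 mM DTT, with 15 uM ATP and poly(Lys,Tyr) substrate for 4 h at 25 °C. Luminescent ADP detection gave percent inhibition, normalized to DMSO and saturating inhibitor.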

T1 sequence (P30291 299-569 limits assumed): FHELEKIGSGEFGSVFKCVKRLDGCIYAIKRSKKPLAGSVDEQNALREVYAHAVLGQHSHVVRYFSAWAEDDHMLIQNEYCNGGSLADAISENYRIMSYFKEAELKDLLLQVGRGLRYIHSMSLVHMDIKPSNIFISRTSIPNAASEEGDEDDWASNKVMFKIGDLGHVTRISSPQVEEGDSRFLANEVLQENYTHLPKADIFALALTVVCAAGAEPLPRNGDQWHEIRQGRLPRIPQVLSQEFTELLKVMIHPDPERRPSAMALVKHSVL

CC(C)n1nc(N2c3nc(Nc4ccc(N5CCN(C)CC5)cc4)ncc3[C@@]3(C)COC(C)(C)C[C@@H]23)ccc1=O (single isomer, unassigned) [Example 829] and CN1CCCC12CCN(c1ccc(Nc3ncc4c(n3)N(c3ccccn3)[C@@H]3CC(C)(C)OC[C@]43C)cc1)CC2 (single isomer, unassigned) [Example 823] cannot be ordered by IC50: less than 10 nM for the first, less than 10 nM for the second.

Same assay, conditions: Wee1 kinase domain, 15 uM ATP, ADP-Glo

First: C[C@H]1COC(=O)N1c1cccc(N2c3nc(Nc4ccc(C5CCN(C)CC5)nc4)ncc3[C@]3(C)COC(C)(C)C[C@H]23)n1 (single isomer, unassigned) [Example 296]
Second: Cc1cc(Nc2ncc3c(n2)N(c2cccc(N4C(=O)OC[C@@H]4C)n2)[C@H]2CC(C)(C)OC[C@@]32C)ccc1O[C@H]1CCN(C)C1 (single isomer, unassigned) [Example 344]
The IC50 of the first is lower: less than 10 nM for the first, 10 to 100 nM for the second.

CN1CC(c2ccc(Nc3ncc4c(n3)N(c3cccc(N=S(C)(C)=O)n3)[C@H]3CC(C)(C)OC[C@@]43C)cc2Cl)C1 (single isomer, unassigned) [Example 182] and CNCc1cccc(N2c3nc(Nc4ccc(C5CCN(C)CC5)c(C)c4)ncc3[C@]3(C)COC(C)(C)C[C@H]23)n1 (single isomer, unassigned) [Example 71] fall in the same range of IC50: 100 to 1000 nM for the first, 100 to 1000 nM for the second.

CNCc1cccc(N2c3nc(Nc4ccc([C@H]5CCC(=O)N5C)nc4)ncc3[C@]3(C)COC(C)(C)C[C@H]23)n1 (single isomer, unassigned) [Example 97] and CNCc1cccc(N2c3nc(Nc4ccc([C@@H]5CCC(=O)N5C)cc4)ncc3[C@]3(C)COC(C)(C)C[C@H]23)n1 (single isomer, unassigned) [Example 51] cannot be ordered by IC50: 100 to 1000 nM for the first, no less than 1000 nM for the second.

CNCc1cccc(N2c3nc(Nc4ccc(N5CC6CC5CO6)cc4)ncc3[C@]3(C)COC(C)(C)C[C@H]23)n1 (stereo in doubt) [Example 42, (4bS,8aS)-N-(4-((1R,4R)-2-oxa-5-azabicyclo[2.2.1]heptan-5-yl)phenyl)-4b,7,7-trimethyl-9-(6-((methylamino)methyl)pyridin-2-yl)-4b,5,7,8,8a,9-hexahydropyrano[3′,4′:4,5]pyrrolo[2,3-d]pyrimidin-2-amine] and C[C@H]1COC(=O)N1c1cccc(N2c3nc(Nc4ccc(N5CCN(C)CC5=O)cc4)ncc3[C@]3(C)COC(C)(C)C[C@H]23)n1 (single isomer, unassigned) [Example 270] fall in the same range of IC50: 10 to 100 nM for the first, 10 to 100 nM for the second.

C[C@H]1COC(=O)N1c1cccc(N2c3nc(Nc4ccc(O[C@@H]5CCNC5)nc4)ncc3[C@]3(C)COC(C)(C)C[C@H]23)n1 (single isomer, unassigned) [Example 286] showed an IC50 of 100 to 1000 nM.

Same assay, conditions: class symbols; 1 nM Wee1 enzyme, 15 uM ATP, 4 hours at 25° C.

First: CN1C[C@H]2C[C@@H]1CN2c1ccc(Nc2ncc3c(n2)N(c2ccccn2)[C@@H]2CC(C)(C)OC[C@]32C)cc1 [Example 801, (4bR,8aR)-4b,7,7-trimethyl-N-(4-((1R,4R)-5-methyl-2,5-diazabicyclo[2.2.1]heptan-2-yl)phenyl)-9-(pyridin-2-yl)-4b,5,7,8,8a,9-hexahydropyrano[3′,4′:4,5]pyrrolo[2,3-d]pyrimidin-2-amine]
Second: CN1C[C@H]2C[C@@H]1CN2c1ccc(Nc2ncc3c(n2)N(c2cccc(N=S(C)(C)=O)c2)[C@H]2CC(C)(C)OC[C@@]32C)cc1 [Example 714, dimethyl((3-((4bS,8aS)-4b,7,7-trimethyl-2-((4-((1R,4R)-5-methyl-2,5-diazabicyclo[2.2.1]heptan-2-yl)phenyl)amino)-4b,7,8,8a-tetrahydropyrano[3′,4′:4,5]pyrrolo[2,3-d]pyrimidin-9(5H)-yl)phenyl)imino)-16-sulfanone]
The IC50 of the first is lower: less than 10 nM for the first, 10 to 100 nM for the second.

First: CC1(C)CC2N(c3cccc([C@@H]4COCCN4)n3)c3nc(Nc4ccc(N5CCOCC5)cc4)ncc3C2(C)CO1 (stereo in doubt) [Example 733, (4bS,8aS)-4b,7,7-trimethyl-9-(6-((R)-morpholin-3-yl)pyridin-2-yl)-N-(4-morpholinophenyl)-4b,5,7,8,8a,9-hexahydropyrano[3′,4′:4,5]pyrrolo[2,3-d]pyrimidin-2-amine]
Second: CC1(C)C[C@@H]2N(c3ccc4c(n3)CCNC4)c3nc(Nc4ccc(N5CCOCC5)cc4)ncc3[C@]2(C)CO1 (single isomer, unassigned) [Example 561]
The IC50 of the first is lower: 10 to 100 nM for the first, no less than 1000 nM for the second.

Compared with CC1(C)C[C@@H]2N(c3cccc(N4CCOC4=O)n3)c3nc(Nc4ccc(O[C@H]5CCNC5)cc4)ncc3[C@]2(C)CO1 [Example 612, 3-(6-((4bS,8aS)-4b,7,7-trimethyl-2-((4-(((S)-pyrrolidin-3-yl)oxy)phenyl)amino)-4b,7,8,8a-tetrahydropyrano[3′,4′:4,5]pyrrolo[2,3-d]pyrimidin-9(5H)-yl)pyridin-2-yl)oxazolidin-2-one], CN1CCC(c2ccc(Nc3ncc4c(n3)N(c3cccc(N5CCOC5=O)n3)[C@H]3CC(C)(C)OC[C@@]43C)cc2)CC1 (single isomer, unassigned) [Example 590] is lower in IC50: 100 to 1000 nM for the first, 10 to 100 nM for the second.

Cc1cc(Nc2ncc3c(n2)N(c2cccc(N4CCOC4=O)n2)[C@H]2CC(C)(C)OC[C@@]32C)ccc1C1CCN(C)CC1 (single isomer, unassigned) [Example 596] and Cc1cc(Nc2ncc3c(n2)N(c2cccc(C(C)(C)O)n2)[C@H]2CC(C)(C)OC[C@@]32C)ccc1N1C[C@@H]2C[C@H]1CN2C (single isomer, unassigned) [Example 430] fall in the same range of IC50: 10 to 100 nM for the first, 10 to 100 nM for the second.

First: CN[C@@H]1CCc2ccc(N3c4nc(Nc5ccc(N6CCOCC6)cc5)ncc4[C@]4(C)COC(C)(C)C[C@H]34)nc21 (single isomer, unassigned) [Example 554]
Second: CN[C@@]1(C)CCc2ccc(N3c4nc(Nc5ccc(N6CCOCC6)cc5)ncc4[C@@]4(C)COC(C)(C)C[C@@H]34)nc21 (single isomer, unassigned) [Example 571]
The IC50 of the first is higher: 100 to 1000 nM for the first, less than 10 nM for the second. The second is the more potent here.

CN1CC2(C1)CN(c1ccc(Nc3ncc4c(n3)N(c3cccc(C(C)(C)O)n3)[C@H]3CC(C)(C)OC[C@@]43C)cc1)C2 (single isomer, unassigned) [Example 444] and CN1C[C@@H]2CN(c3ccc(Nc4ncc5c(n4)N(c4cccc(C(C)(C)O)n4)[C@H]4CC(C)(C)OC[C@@]54C)cc3)C[C@@H]2C1 (single isomer, unassigned) [Example 445] fall in the same range of IC50: 100 to 1000 nM for the first, 100 to 1000 nM for the second.

CC[C@]1(O)CCc2ccc(N3c4nc(Nc5ccc(N6CCN(C)CC6)cc5)ncc4[C@@]4(C)COC(C)(C)C[C@@H]34)nc21 [Example 788, (S)-7-ethyl-2-((4bR,8aR)-4b,7,7-trimethyl-2-((4-(4-methylpiperazin-1-yl)phenyl)amino)-4b,7,8,8a-tetrahydropyrano[3′,4′:4,5]pyrrolo[2,3-d]pyrimidin-9(5H)-yl)-6,7-dihydro-5H-cyclopenta[b]pyridin-7-ol] and CC[C@]1(O)CCc2ccc(N3c4nc(Nc5ccc(N6C[C@@H]7C[C@H]6CN7C)cc5)ncc4[C@@]4(C)COC(C)(C)C[C@@H]34)nc21 [Example 791, (S)-7-ethyl-2-((4bR,8aR)-4b,7,7-trimethyl-2-((4-((1S,4S)-5-methyl-2,5-diazabicyclo[2.2.1]heptan-2-yl)phenyl)amino)-4b,7,8,8a-tetrahydropyrano[3′,4′:4,5]pyrrolo[2,3-d]pyrimidin-9(5H)-yl)-6,7-dihydro-5H-cyclopenta[b]pyridin-7-ol] cannot be ordered by IC50: less than 10 nM for the first, less than 10 nM for the second.
